Test results as given in patent US12351830B2, “Method for maintaining and amplifying colon cancer stem cells and method for inducing colon cancer organoid” (NATIONAL UNIVERSITY CORPORATION KOBE UNIVERSITY, priority 2017, dated 2025).

Columns and labels:
Format in all cases: cell-based, human
2nd V50-OKS cells [1] = assay: sphere formation assay, induced colon cancer stem cells; conditions: VPA 1 mM, CHIR99021 3 μM, 10 days
Method: The cells were transferred to Ultra Low Attachment plates (Corning) in serum-free DMEM containing 10 ng/ml bFGF (WAKO), 10 μg/ml human insulin (CST), 100 μg/ml human transferrin (Roche) and 100 μg/ml BSA (Nacalai Tesque), and incubated at 37° C. in a 5% CO2 incubator for 10 days. The sphere count was calculated based on the sphere size which was larger than 100 μm. FK506 (25 μM), VPA (1 mM) or CHIR99021 (3 μM) were added to the medium and the spheres were then treated for 10 days. SW480 cells or 2nd V50 cells were subjected to flat plane adhesion culture in the presence of FK506 (Sigma) for 5-15 days, and the cell number was counted with Countess (Invitrogen) system. Alternatively, the cells were subjected to flat plane adhesion culture in the presence of FK506, and then suspension culture in the presence or absence of FK506 to form spheres. The sphere number was counted with Countess (Invitrogen) system. Unless otherwise specified, FK506 was used at a concentration of 25 μM in this Example.

NFATc3-GFP = assay: localization of NFATc3-GFP in 2nd V50-OKS cells; conditions: 2nd V50-OKS cells treated with compound
Text: Retroviral vectors separately encoding OCT3/4, SOX2 or KLF4 in pMXs based vectors (pMXs-OCT3/4, pMXs-SOX2, pMXs-KLF4) were obtained from Addgene. Therefore, using these vectors, the polycistronic retroviral vector encoding OCT3/4, KLF4 and SOX2 (pMXs-OKS) was designed. That is, human OCT3/4, KLF4 and SOX2 were amplified by polymerase chain reaction (PCR) with primers containing the 2A sequences of Thosea asigna virus (T2A) and cloned into EcoRI site of pMXs vector using the In-fusion HD cloning system (Clontech). To generate pMXs-NFATc3-GFP construct, NFATc3-GFP cDNA were PCR amplified using HA-NFAT4 (3-407)-GFP (purchased from Addgene #21664) as a template and cloned into EcoRI-Notl site of pMXs-vector).
Finally, the cellular localization of NFAT after the treatment of FK506, VPA and CHIR in the iCSCs was examined. NFATc3 fused to green fluorescent protein (NFATc3-GFP; Aramburu J, et al., Science, 1999; 285:2129-33, Peuker K, et al., Nat Med, 2016, 22:506-15) was retrovirally introduced into 2nd V50-OKS cells. In the 2nd V50-OKS cells without any compounds and those with FK506, it was observed that NFATc3-GFP localized in the cytoplasm. In contrast, localization of NFATc3-GFP was found in the nuclei of the 2nd V50-OKS cells treated with VPA and CHIR (FIG. 16). […] This is opposite to inhibition of calcineurin via cytoplasm-nuclear translocation of NFAT.

2nd V50 cells = assay: colony formation assay; conditions: 1 mM VPA, 3 μM CHIR or 25 μM FK506, day 12
Method: 2nd VP50 cells produced by 3 independent experiments were seeded in a 6 well plate at a density of 2×10^3 cells/well. The next day, the medium was changed to a medium not added with the compound, or a medium added with 1 mM VPA, 3 μM CHIR or 25 μM FK506. Thereafter, the medium was changed every 2 days or 3 days. On day 12, the cells were fixed with methanol, stained with crystal violet and the colonies were counted using a stereoscopic microscope.

2nd V50-OKS cells [2] = assay: flat plane adhesion culture of induced colon cancer stem cells, cell count and morphology; conditions: for effect in flat plane adhesion culture (morphology, number of cells): VPA 1 mM, CHIR99021 3 μM, 5 days
Method: A human colon cancer cell line (SW480) and Plat-A amphotropic retrovirus packaging cells were obtained from the ATCC collection and Cell Biolabs (San Diego, CA, USA), respectively. Both cells were maintained in Dulbecco's modified Eagle's medium (DMEM) (Nacalai Tesque, Kyoto, Japan) supplemented with 10% fetal bovine serum (FBS) (Life Technologies) and penicillin (100 Units/ml) and streptomycin (100 μg/ml) (Life Technologies) at 37° C. in a humidified 5% […] incubator. In Plat-A culture, 1 μg/ml of puromycin (Nacalai Tesque) and 10 μg/ml of blasticidin (Funakoshi) were added. HUVECs (Lonza) and human MSCs (Lonza) were maintained in endothelial growth medium (Lonza) at 37° C. in a humidified 5% CO2 incubator. The cells were treated with FK506 (Sigma, 25 μM), VPA (WAKO, 1 mM) or CHIR99021 (Funakoshi, 3 μM) for 5 days. Thereafter, the cells were detached from the culture dish by an enzyme treatment, dispersed and the number of the cells was counted with Countess system (Invitrogen). The human induced pluripotent stem (hiPS) cells used as a control were generated from human peripheral blood mononuclear cells in the laboratory.
Culture of SW480 cells after introduction of reprogramming factor, isolation of induced colon cancer stem cell (hereinafter to be also referred to as “colon iCSC”)-enriched cell population and induction of colon cancer organoid were performed according to the schedule described in FIG. 6. Establishing culture of colon iCSC and sorting of colon iCSC-enriched cell population were performed according to the method described in the above-mentioned non-patent document 3 (flow cytometry utilizing Hoechst33342 eliminating ability in the presence of 50 μM verapamil). Hereinafter colon iCSC-enriched cell population (cell population not labeled with Hoechst33342 in the presence of 50 μM verapamil; V50 cell) obtained by the first sorting is sometimes to be abbreviated as 1st V50 cell (or 1st V50-OKS cell), and the V50 cell obtained by the second sorting is sometimes to be abbreviated as 2nd V50 cell (or 2nd V50-OKS cell). On the other hand, the cell population labeled with Hoechst33342 in the presence of 50 μM verapamil is sometimes to be abbreviated as non V50cell or non V50-OKS cell. Colon cancer organoid was induced by the method described in the below-mentioned sphere formation assay.
SW480 cells or 2nd V50 cells were subjected to flat plane adhesion culture in the presence of FK506 (Sigma) for 5-15 days, and the cell number was counted with Countess (Invitrogen) system. Alternatively, the cells were subjected to flat plane adhesion culture in the presence of FK506, and then suspension culture in the presence or absence of FK506 to form spheres. The sphere number was counted with Countess (Invitrogen) system. Unless otherwise specified, FK506 was used at a concentration of 25 μM in this Example.
Duplexed Stealth siRNA (Invitrogen) were used for reference examples and were transduced to the cells according to the manufacturer's protocol.

2nd V50-OKS-SW480 cells = assay: 5-FU-chemoresistance analysis; conditions: 1 and 50 μg/ml 5-FU, 72 hr, relative to cells without 5-FU, n=3
Method: A total of 6×10^4 cells were seeded in 12-well plates with DMEM containing 0, 1, 50 μg/ml of 5-fluorouracil (5-FU, Kyowa Kirin) respectively. After incubation for 72 hr, the cell viability after 5-FU exposure was measured by the Countess (Invitrogen) system.

| SMILES | sphere forming ability (2nd V50-OKS cells [1]) | cellular localization of NFATc3-GFP (NFATc3-GFP) | number of secondary dome-shaped colonies (2nd V50 cells) | effect in flat plane adhesion culture (morphology, number of cells) (2nd V50-OKS cells [2]) | effect on the cell number (2nd V50-OKS cells [2]; 2nd V50-OKS cultures, FK506 25 μM, 5 days after passage) | total cell number amplification (2nd V50-OKS cells [2]; 2nd V50 cells adhesion cultured with FK506, 10 days) | total cell number amplification (2nd V50-OKS cells [2]; 2nd V50 cells adhesion cultured with FK506, 15 days) | viability of 2nd V50-OKS-SW480 cells in the presence of 5-FU compared with parental SW480 cells (2nd V50-OKS-SW480 cells) |
| --- | --- | --- | --- | --- | --- | --- | --- | --- |
| Cc1c[nH]c(-c2cnc(NCCNc3ccc(C#N)cn3)nc2-c2ccc(Cl)cc2Cl)n1 [CHIR99021] | significantly suppressed | nuclei | decreased | the same effect as siRNA | – | – | – | – |
| C=CC[C@@H]1/C=C(\C)C[C@H](C)C[C@H](OC)[C@H]2O[C@@](O)(C(=O)C(=O)N3CCCC[C@H]3C(=O)O[C@H](/C(C)=C/[C@@H]3CC[C@@H](O)[C@H](OC)C3)[C@H](C)[C@@H](O)CC1=O)[C@H](C)C[C@@H]2OC [FK506, FK506 (tacrolimus)] | – | – | – | – | no significant effect | about 100 times | about 1000 times | – |
| CCCC(CCC)C(=O)O [VPA, valproic acid] | significantly suppressed | nuclei | decreased | the same effect as siRNA | – | – | – | – |
| O=c1[nH]cc(F)c(=O)[nH]1 [5-FU, 5-fluorouracil] | – | – | – | – | – | – | – | significantly higher |
